Laboratory results as given in patent publication US12624044B2, “SMARCA degraders and uses thereof” (Kymera Therapeutics, Inc., priority 2019, dated 2026).

Columns and labels:
Assay type in all cases: cell-based
SMARCA2 [1] = target: T1, SMARCA2 (Homo sapiens, UniProt P51531); test: SMARCA2 Western blot MV4-11 degradation; conditions: for DC50 / Dmax: 24 h; for DC50: read-out: SMARCA2 WB MV411 degradation 24 h: Average external-Abs DC50; for Dmax: MV4-11, MV4-11 cells, read-out: SMARCA2 WB MV411 degradation 24 h: Average Dmax %
Procedure, shortened: (§1)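 MV4-11 cells treated with compound for 24 h, lysed in RIPA with protease/phosphatase inhibitors, and SMARCA2 and SMARCA4 (BRG1) levels assessed by Western blot with β-actin loading control and LI-COR fluorescent read-out. Maximal degradation (Dmax %) after 24 h binned into letter codes.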

SMARCA4 = target: T2, SMARCA4 (Homo sapiens, UniProt P51532); test: SMARCA4 Western blot MV4-11 degradation; conditions: for DC50 / Dmax: 24 h; for DC50: read-out: SMARCA4 WB MV411 degradation 24 h: Average external-Abs DC50; for Dmax: MV4-11, MV4-11 cells, read-out: SMARCA4 WB MV411 degradation 24 h: Average Dmax %
T2 construct: SMARCA2 and SMARCA4 protein degradation in MV4-11 cells; endogenous in cells; host or cells: MV4-11
Procedure, shortened: as §1

SMARCA2 [2] = target: T1, SMARCA2; test: MSD SMARCA2 degradation in A549 cell line; conditions: for DC50 / Dmax: 24 h; for DC50: read-out: SMARCA2 MSD A549 degradation 24 h: Average external-Abs DC50; for Dmax: A549, A549 cells
Procedure, shortened: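 SMARCA2 remaining was measured by MSD electrochemiluminescence on RIPA lysates (anti-SMARCA2 plus SULFO-TAG anti-rabbit). Prior exposure: 24 h of A549 cells to a 10-point, 3-fold dilution series topping at 1000 nM final; Dmax % given as graded codes.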

SMARCA2 [3] = target: T1, SMARCA2; test: MSD SMARCA2 degradation in NCI-H1299 cell line (24 h); parameters: HC: NCI-H1299 cells treated with DMSO; host or cells: NCI-H1299; conditions: NCI-H1299 cells
Procedure, shortened: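 SMARCA2 measured by MSD electrochemiluminescence (primary 0.3 ug/ml, secondary 1 ug/ml) on lysates from NCI-H1299 cells exposed to compounds for 24 h across nine 3-fold dilutions. Signal scaled from A2780 cells (no SMARCA2) to DMSO-treated H1299 controls, and maximal degradation after 24 h reported in letter categories.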

T2 sequence (P51532 whole entry): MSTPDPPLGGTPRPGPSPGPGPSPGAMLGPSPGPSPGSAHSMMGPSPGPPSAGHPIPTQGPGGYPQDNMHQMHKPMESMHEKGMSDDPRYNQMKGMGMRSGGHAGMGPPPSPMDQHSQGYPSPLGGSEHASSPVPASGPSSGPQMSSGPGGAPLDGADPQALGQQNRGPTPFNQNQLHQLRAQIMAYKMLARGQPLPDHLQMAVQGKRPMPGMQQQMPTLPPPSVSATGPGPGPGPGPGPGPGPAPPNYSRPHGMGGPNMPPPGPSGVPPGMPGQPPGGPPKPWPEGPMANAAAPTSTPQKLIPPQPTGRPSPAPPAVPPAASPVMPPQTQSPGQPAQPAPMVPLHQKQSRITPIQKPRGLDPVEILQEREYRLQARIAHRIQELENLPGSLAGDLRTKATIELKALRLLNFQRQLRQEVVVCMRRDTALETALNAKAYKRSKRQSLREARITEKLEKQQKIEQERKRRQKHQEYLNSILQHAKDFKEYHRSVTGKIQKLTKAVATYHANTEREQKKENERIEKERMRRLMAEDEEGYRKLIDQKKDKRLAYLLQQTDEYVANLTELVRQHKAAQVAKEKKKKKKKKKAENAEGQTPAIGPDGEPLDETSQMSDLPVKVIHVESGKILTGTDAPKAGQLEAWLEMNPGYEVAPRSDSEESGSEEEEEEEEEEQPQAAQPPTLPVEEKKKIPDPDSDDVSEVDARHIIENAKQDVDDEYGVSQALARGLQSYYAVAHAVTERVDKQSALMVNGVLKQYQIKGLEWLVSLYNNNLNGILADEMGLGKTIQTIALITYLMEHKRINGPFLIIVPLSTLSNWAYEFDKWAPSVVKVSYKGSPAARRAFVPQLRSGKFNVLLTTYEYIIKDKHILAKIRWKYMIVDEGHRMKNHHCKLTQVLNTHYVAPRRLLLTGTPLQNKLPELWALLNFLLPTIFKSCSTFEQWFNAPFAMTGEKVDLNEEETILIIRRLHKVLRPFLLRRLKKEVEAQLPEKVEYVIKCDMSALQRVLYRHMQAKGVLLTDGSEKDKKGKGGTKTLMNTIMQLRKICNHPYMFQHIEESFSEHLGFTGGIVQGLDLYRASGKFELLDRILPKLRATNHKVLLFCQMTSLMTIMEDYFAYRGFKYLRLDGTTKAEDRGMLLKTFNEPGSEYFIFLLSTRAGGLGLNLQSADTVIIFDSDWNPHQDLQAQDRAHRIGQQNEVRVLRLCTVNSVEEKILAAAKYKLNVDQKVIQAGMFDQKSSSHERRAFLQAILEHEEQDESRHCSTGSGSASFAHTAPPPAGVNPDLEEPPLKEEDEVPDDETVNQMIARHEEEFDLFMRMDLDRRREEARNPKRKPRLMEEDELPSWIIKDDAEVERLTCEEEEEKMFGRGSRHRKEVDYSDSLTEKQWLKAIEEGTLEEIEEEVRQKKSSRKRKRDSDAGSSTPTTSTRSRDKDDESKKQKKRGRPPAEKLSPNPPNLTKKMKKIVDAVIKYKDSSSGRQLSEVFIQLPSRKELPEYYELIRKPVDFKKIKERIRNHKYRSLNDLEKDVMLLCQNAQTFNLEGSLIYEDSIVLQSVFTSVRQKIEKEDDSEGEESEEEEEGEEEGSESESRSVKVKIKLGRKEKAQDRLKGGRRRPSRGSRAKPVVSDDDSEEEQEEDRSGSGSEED
T1 sequence (P51531 whole entry): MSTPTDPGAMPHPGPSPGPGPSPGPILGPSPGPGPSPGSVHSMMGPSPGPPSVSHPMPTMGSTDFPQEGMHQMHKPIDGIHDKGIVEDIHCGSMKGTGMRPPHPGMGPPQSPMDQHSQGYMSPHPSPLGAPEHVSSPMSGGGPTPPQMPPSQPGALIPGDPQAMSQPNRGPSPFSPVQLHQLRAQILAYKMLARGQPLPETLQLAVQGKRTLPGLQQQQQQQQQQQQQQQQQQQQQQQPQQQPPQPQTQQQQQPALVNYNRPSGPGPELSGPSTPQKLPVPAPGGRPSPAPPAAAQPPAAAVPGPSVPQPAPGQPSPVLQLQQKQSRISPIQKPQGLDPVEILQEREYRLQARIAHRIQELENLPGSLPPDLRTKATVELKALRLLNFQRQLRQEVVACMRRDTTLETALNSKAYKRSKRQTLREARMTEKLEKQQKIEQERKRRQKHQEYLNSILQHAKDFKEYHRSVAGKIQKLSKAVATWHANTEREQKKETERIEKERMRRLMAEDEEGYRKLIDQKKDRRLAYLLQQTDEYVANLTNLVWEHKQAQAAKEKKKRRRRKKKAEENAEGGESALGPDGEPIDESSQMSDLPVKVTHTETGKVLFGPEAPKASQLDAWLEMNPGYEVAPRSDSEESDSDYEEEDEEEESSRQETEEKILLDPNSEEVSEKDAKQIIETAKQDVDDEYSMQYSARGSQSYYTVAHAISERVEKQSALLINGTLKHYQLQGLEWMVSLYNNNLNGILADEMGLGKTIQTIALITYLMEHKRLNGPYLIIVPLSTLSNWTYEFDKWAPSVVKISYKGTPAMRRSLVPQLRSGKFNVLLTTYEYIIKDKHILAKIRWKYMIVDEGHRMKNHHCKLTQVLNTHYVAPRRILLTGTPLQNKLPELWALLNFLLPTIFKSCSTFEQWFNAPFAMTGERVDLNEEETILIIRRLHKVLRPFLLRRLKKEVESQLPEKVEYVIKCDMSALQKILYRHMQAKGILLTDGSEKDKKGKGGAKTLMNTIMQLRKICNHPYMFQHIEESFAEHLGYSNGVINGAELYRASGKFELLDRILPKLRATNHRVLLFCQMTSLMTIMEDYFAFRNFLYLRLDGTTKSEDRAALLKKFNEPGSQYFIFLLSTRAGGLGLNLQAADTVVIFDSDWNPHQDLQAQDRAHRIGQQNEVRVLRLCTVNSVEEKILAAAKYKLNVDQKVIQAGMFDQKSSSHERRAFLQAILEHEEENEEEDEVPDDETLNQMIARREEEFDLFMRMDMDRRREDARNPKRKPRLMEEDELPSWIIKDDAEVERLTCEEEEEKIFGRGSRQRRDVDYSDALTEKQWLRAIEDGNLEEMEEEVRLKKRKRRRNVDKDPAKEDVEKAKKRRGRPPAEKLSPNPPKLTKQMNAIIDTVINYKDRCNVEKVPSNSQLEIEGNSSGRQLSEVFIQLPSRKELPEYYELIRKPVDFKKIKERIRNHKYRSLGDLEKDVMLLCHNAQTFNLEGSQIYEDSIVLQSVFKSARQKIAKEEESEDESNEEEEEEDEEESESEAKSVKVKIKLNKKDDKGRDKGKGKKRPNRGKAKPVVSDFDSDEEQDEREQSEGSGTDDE

SMARCA2 WB MV411 degradation 24 h: Average Dmax % (SMARCA2 [1]; MV4-11 cells)	SMARCA4 WB MV411 degradation 24 h: Average Dmax % (SMARCA4; MV4-11 cells)	SMARCA2 MSD A549 degradation 24 h: Average Dmax % (SMARCA2 [2]; A549 cells)	SMARCA2 MSD H1299 degradation 24 h: Dmax % (SMARCA2 [3])	DC50 (SMARCA2 [3]; read-out: SMARCA2 MSD H1299 degradation 24 h: External Abs-DC50)	SMILES	DC50 (SMARCA2 [1]; MV4-11 cells)	DC50 (SMARCA4; MV4-11 cells)	DC50 (SMARCA2 [2]; A549 cells)	Dmax (SMARCA2 [1])	Dmax (SMARCA4)	Dmax (SMARCA2 [2])
B (B (>70-90% degradation))	D (D (<50% degradation))	B (B (>70-90% degradation))	C (C (50-70 degradation))	501 to 1000 nM	Cc1ncsc1-c1ccc(CNC(=O)[C@@H]2C[C@@H](O)CN2C(=O)[C@@H](NC(=O)[C@H]2CC3(C2)C[C@H](N2CCC(n4cc(-c5cc(-c6ccccc6O)nnc5N)cn4)CC2)C3)C(C)(C)C)cc1 (some centres unmarked) [I-390]	< 100 nM	< 100 nM	100 to 500 nM	–	–	–
–	–	–	–	–	Cc1ncsc1-c1ccc(CNC(=O)[C@@H]2C[C@@H](O)CN2C(=O)[C@@H](NC(=O)[C@H]2CC[C@H](CN(C)Cc3cnc(N4C5CCC4CN(c4cc(-c6ccccc6O)nnc4N)C5)nc3)CC2)C(C)(C)C)cc1 [I-486]	< 100 nM	100 to 500 nM	100 to 500 nM	> 90%	50 to 70%	> 90%
–	–	–	–	–	Cc1ncsc1-c1ccc(CNC(=O)[C@@H]2C[C@@H](O)CN2C(=O)[C@@H](NC(=O)C2CCC(c3cnc(N4C5CCC4CN(c4cc(-c6ccccc6O)nnc4N)C5)nc3)CC2)C(C)(C)C)cc1 (some centres unmarked) [I-503]	< 100 nM	< 100 nM	< 100 nM	> 90%	> 90%	> 90%
–	–	–	–	–	Cc1ncsc1-c1ccc(CNC(=O)[C@@H]2C[C@@H](O)CN2C(=O)[C@@H](NC(=O)CN2C3CCC2CC(c2cnc(N4C5CCC4CN(c4cc(-c6ccccc6O)nnc4N)C5)nc2)C3)C(C)(C)C)cc1 (some centres unmarked) [I-509]	< 100 nM	> 1000 nM	100 to 500 nM	70 to 90%	70 to 90%	> 90%
–	–	–	–	–	Cc1ncsc1-c1ccc(CNC(=O)[C@@H]2C[C@@H](O)CN2C(=O)[C@@H](NC(=O)c2ccc(N3CC(n4cc(-c5cc(-c6ccccc6O)nnc5N)cn4)C3)cc2)C(C)(C)C)cc1 [I-514]	< 100 nM	< 100 nM	100 to 500 nM	> 90%	> 90%	> 90%
–	–	–	–	–	Cc1ncsc1-c1ccc(CNC(=O)[C@@H]2C[C@@H](O)CN2C(=O)[C@@H](NC(=O)CN2CCC(c3cnc(N4C5CCC4CN(c4cc(-c6ccccc6O)nnc4N)C5)nc3)CC2)C(C)(C)C)c(C(F)(F)F)c1 [I-522]	< 100 nM	> 1000 nM	100 to 500 nM	> 90%	70 to 90%	70 to 90%
